Type in all cases: functional
Assay [1] concerns Rattus norvegicus. In words: Antiinflammatory activity in rat assessed as inhibition of carrageenan-induced paw edema administered 30 mins prior to carrageenan challenge measured after 1 hr relative to control. For orientation: The carrageenan paw model is a standard test of acute inflammation.
For assay [2], the system named is Rattus norvegicus. Put plainly: Antiinflammatory activity in rat assessed as inhibition of carrageenan-induced paw edema administered 30 mins prior to carrageenan challenge measured after 2 hrs relative to control.
Assay [3] has as its system Rattus norvegicus. In words: Antiinflammatory activity in rat assessed as inhibition of carrageenan-induced paw edema administered 30 mins prior to carrageenan challenge measured after 3 hrs relative to control.
Assay [4] relates to Staphylococcus aureus. In words: Antimicrobial activity against Staphylococcus aureus MTCC 3160 after 24 hrs by broth dilution method. Conditions: MTCC 3160, 24 h.
For assay [5], the system named is Bacillus subtilis. In words: Antimicrobial activity against Bacillus subtilis MTCC 441 after 24 hrs by broth dilution method. Conditions: MTCC 441, 24 h. On the technique in general: In broth dilution the organism is exposed to a series of concentrations in liquid medium.
Assay [6] deals with Escherichia coli. In words: Antimicrobial activity against Escherichia coli MTCC 4351 after 24 hrs by broth dilution method. The settings on record: MTCC 4351, 24 h.
Assay [7] deals with Klebsiella pneumoniae. Put plainly: Antimicrobial activity against Klebsiella pneumoniae MTCC 3384 after 24 hrs by broth dilution method. Conditions: MTCC 3384, 24 h.
The subject of assay [8] is Staphylococcus aureus. In words: Antimicrobial activity against Staphylococcus aureus MTCC 3160 assessed as zone of inhibition at 5 mg/ml after 24 hrs by agar well diffusion method. The settings on record: MTCC 3160, 24 h, read-out: IZ. For orientation: Agar diffusion results depend on both activity and mobility in agar.
The test system of assay [9] is Bacillus subtilis. In words: Antimicrobial activity against Bacillus subtilis MTCC 441 assessed as zone of inhibition at 5 mg/ml after 24 hrs by agar well diffusion method. The settings on record: MTCC 441, 24 h, read-out: IZ.
Assay [10] relates to Escherichia coli. Put plainly: Antimicrobial activity against Escherichia coli MTCC 4351 assessed as zone of inhibition at 5 mg/ml after 24 hrs by agar well diffusion method. Conditions: MTCC 4351, 24 h, read-out: IZ.
In assay [11] the test system is Klebsiella pneumoniae. In words: Antimicrobial activity against Klebsiella pneumoniae MTCC 3384 assessed as zone of inhibition at 5 mg/ml after 24 hrs by agar well diffusion method. The settings on record: MTCC 3384, 24 h, read-out: IZ.
In assay [12] the test system is Aspergillus niger. Put plainly: Antifungal activity against Aspergillus niger MTCC 282 after 48 hrs by broth dilution method. Conditions: MTCC 282, 48 h.
Assay [13] has as its system Candida tropicalis. Put plainly: Antifungal activity against Candida tropicalis MTCC 183 after 48 hrs by broth dilution method. The settings on record: MTCC 183, 48 h.
Assay [14] concerns Candida albicans. Put plainly: Antifungal activity against Candida albicans MTCC 461 after 48 hrs by broth dilution method. Conditions: MTCC 461, 48 h.
The subject of assay [15] is Penicillium chrysogenum. Put plainly: Antifungal activity against Penicillium notatum after 48 hrs by broth dilution method.
The test system of assay [16] is Aspergillus niger. Put plainly: Antifungal activity against Aspergillus niger MTCC 282 assessed as zone of inhibition at 5 mg/ml after 24 hrs by agar well diffusion method. Conditions: MTCC 282, 24 h, read-out: IZ.
Assay [17] relates to Candida tropicalis. In words: Antifungal activity against Candida tropicalis MTCC 183 assessed as zone of inhibition at 5 mg/ml after 24 hrs by agar well diffusion method. The settings on record: MTCC 183, 24 h, read-out: IZ.
In assay [18] the test system is Candida albicans. Put plainly: Antifungal activity against Candida albicans MTCC 461 assessed as zone of inhibition at 5 mg/ml after 24 hrs by agar well diffusion method. The settings on record: MTCC 461, 24 h, read-out: IZ.
Assay [19] has as its system Penicillium chrysogenum. In words: Antifungal activity against Penicillium notatum assessed as zone of inhibition at 5 mg/ml after 24 hrs by agar well diffusion method. The settings on record: read-out: IZ.

Values after ≈ are worked out from the molar mass of the structure shown.

Usually MIC stands for the lowest concentration found to suppress growth. Regarding `CCCn1c(-c2ccc(Cl)cc2Cl)nc2cc(C(=O)N/N=C/c3cccc(Cl)c3)ccc21`, the “inhibition (INH)” value in [1] was found to be 49.25%; in [2], 45.73%; in [3], 43.35%. Moreover, the minimum inhibitory concentration (MIC) in assay [4] came out at 25 µg/mL (≈ 51.5 µM); in assay [5], 25 µg/mL (≈ 51.5 µM); in assay [6], 6.25 µg/mL (≈ 12.9 µM); in [7], 50 µg/mL (≈ 103 µM); in assay [12] it was 12.5 µg/mL (≈ 25.7 µM); in assay [13] it was 25 µg/mL (≈ 51.5 µM). In addition, the MIC in assay [14] amounted to 100 µg/mL (≈ 206 µM); in assay [15] it was 25 µg/mL (≈ 51.5 µM). Also, the zone of inhibition at 5000 µg/mL was found to be 15 mm in [8]; 15 mm in assay [9]; 21 mm in assay [10]; 14 mm in assay [11]; 18 mm in [16]; 16 mm in assay [17]. Moreover, the zone of inhibition at 5000 µg/mL in assay [18] is 10 mm; in [19] it was 14 mm.
With `CCCn1c(-c2ccc(Cl)cc2Cl)nc2cc(C(=O)N/N=C/c3ccc(Cl)cc3)ccc21`, the “inhibition (INH)” value in [1] came to 56.85%; in assay [2], 53.56%; in assay [3], 46.56%. Moreover, the MIC in [4] was found to be 50 µg/mL (≈ 103 µM); in assay [5], 12.5 µg/mL (≈ 25.7 µM); in assay [6] it was 50 µg/mL (≈ 103 µM); in [7], 25 µg/mL (≈ 51.5 µM); in [12], 25 µg/mL (≈ 51.5 µM); in assay [13], 50 µg/mL (≈ 103 µM). Also, the figures for the MIC in [14] and in assay [15] were 12.5 µg/mL (≈ 25.7 µM) and 25 µg/mL (≈ 51.5 µM), respectively. Further, the zone of inhibition at 5000 µg/mL in assay [8] amounted to 12 mm; in assay [9], 18 mm; in assay [10], 10 mm; in [11] it was 17 mm; in [16], 17 mm; in [17] it was 14 mm. The figures for the zone of inhibition at 5000 µg/mL in [18] and in assay [19] were 17 mm and 13 mm, respectively.
Consider `CCCn1c(-c2ccc(Cl)cc2Cl)nc2cc(C(=O)N/N=C/c3ccccc3F)ccc21`, for which the “inhibition (INH)” value came out at 60.55% in assay [1], 67.78% in assay [2] and 68.9% in [3]. The MIC in assay [4] turned out to be 12.5 µg/mL (≈ 26.6 µM); in assay [5] it was 6.25 µg/mL (≈ 13.3 µM); in [6], 6.25 µg/mL (≈ 13.3 µM); in assay [7], 12.5 µg/mL (≈ 26.6 µM); in assay [12], 3.12 µg/mL (≈ 6.65 µM); in assay [13], 6.25 µg/mL (≈ 13.3 µM). Moreover, the MIC in assay [14] is 6.25 µg/mL (≈ 13.3 µM); in assay [15] it was 12.5 µg/mL (≈ 26.6 µM). Also, the zone of inhibition at 5000 µg/mL in assay [8] came out at 17 mm; in [9], 19 mm; in [10], 20 mm; in [11], 18 mm; in assay [16], 22 mm; in [17], 18 mm. Further, the zone of inhibition at 5000 µg/mL in [18] is 19 mm; in assay [19] it was 16 mm.
For `CCCn1c(-c2ccc(Cl)cc2Cl)nc2cc(C(=O)N/N=C/c3ccc(F)cc3)ccc21`, the “inhibition (INH)” value amounted to 61.48% in [1], 53.14% in assay [2] and 50.36% in assay [3]. The MIC in assay [4], in assay [5], in [6], in assay [7], in assay [12] and in assay [13] was 6.25 µg/mL (≈ 13.3 µM) throughout. For the same molecule, the MIC in assay [14] turned out to be 6.25 µg/mL (≈ 13.3 µM); in [15], 25 µg/mL (≈ 53.3 µM). The zone of inhibition at 5000 µg/mL in assay [8] was 20 mm; in [9], 19 mm; in assay [10], 20 mm; in [11], 19 mm; in assay [16] it was 20 mm; in assay [17] it was 18 mm. Further, the zone of inhibition at 5000 µg/mL in [18] was 18 mm; in assay [19] it was 15 mm.
Turning to `CCCn1c(-c2ccc(Cl)cc2Cl)nc2cc(C(=O)N/N=C/c3ccc(Br)cc3)ccc21`, the entries for the “inhibition (INH)” value in assay [1], in assay [2] and in assay [3] were 65.55%, 69.51% and 69.05%, respectively. For the same molecule, the MIC in assay [4] was 12.5 µg/mL (≈ 23.6 µM); in assay [5] it was 6.25 µg/mL (≈ 11.8 µM); in assay [6], 3.12 µg/mL (≈ 5.88 µM); in [7], 25 µg/mL (≈ 47.1 µM); in assay [12], 6.25 µg/mL (≈ 11.8 µM); in assay [13] it was 12.5 µg/mL (≈ 23.6 µM). The results for the MIC in assay [14] and in assay [15] were 25 µg/mL (≈ 47.1 µM) and 50 µg/mL (≈ 94.3 µM), respectively. The zone of inhibition at 5000 µg/mL in assay [8] was determined as 17 mm; in assay [9], 19 mm; in assay [10], 22 mm; in assay [11], 17 mm; in assay [16] it was 20 mm; in assay [17], 16 mm. Also, the zone of inhibition at 5000 µg/mL in assay [18] came to 15 mm; in assay [19], 14 mm.
For `CCCn1c(-c2ccc(Cl)cc2Cl)nc2cc(C(=O)N/N=C/c3ccc(C)cc3)ccc21`, the “inhibition (INH)” value in assay [1] was determined as 49.25%; in assay [2], 52.72%; in assay [3] it was 47.73%. Moreover, the MIC in assay [4] is 6.25 µg/mL (≈ 13.4 µM); in assay [5], 12.5 µg/mL (≈ 26.9 µM); in assay [6], 12.5 µg/mL (≈ 26.9 µM); in assay [7], 6.25 µg/mL (≈ 13.4 µM); in assay [12], 3.12 µg/mL (≈ 6.7 µM); in assay [13], 6.25 µg/mL (≈ 13.4 µM). The MIC in [14] worked out at 12.5 µg/mL (≈ 26.9 µM); in [15], 6.25 µg/mL (≈ 13.4 µM). Also, the zone of inhibition at 5000 µg/mL turned out to be 20 mm in assay [8]; 17 mm in [9]; 18 mm in assay [10]; 18 mm in [11]; 22 mm in [16]; 18 mm in assay [17]. For the same molecule, the values for the zone of inhibition at 5000 µg/mL in assay [18] and in assay [19] were 16 mm and 17 mm, respectively.
For `CCCn1c(-c2ccc(Cl)cc2Cl)nc2cc(C(=O)N/N=C/c3ccc(N(C)C)cc3)ccc21`, the “inhibition (INH)” value is 55% in assay [1], 53.84% in assay [2] and 50.94% in assay [3]. For the same molecule, the MIC in assay [4] came to 12.5 µg/mL (≈ 25.3 µM); in assay [5] it was 6.25 µg/mL (≈ 12.6 µM); in [6], 25 µg/mL (≈ 50.6 µM); in assay [7], 25 µg/mL (≈ 50.6 µM); in [12] it was 25 µg/mL (≈ 50.6 µM); in [13], 25 µg/mL (≈ 50.6 µM). The MIC amounted to 12.5 µg/mL (≈ 25.3 µM) in assay [14] and 50 µg/mL (≈ 101 µM) in [15]. The zone of inhibition at 5000 µg/mL is 17 mm in assay [8]; 19 mm in assay [9]; 15 mm in assay [10]; 16 mm in [11]; 16 mm in [16]; 16 mm in assay [17]. In addition, the zone of inhibition at 5000 µg/mL turned out to be 16 mm in assay [18] and 13 mm in assay [19].
With `CCCn1c(-c2ccc(Cl)cc2Cl)nc2cc(C(=O)N/N=C/c3ccc(OC)cc3)ccc21`, the “inhibition (INH)” value was 51.11% in assay [1], 62.23% in [2] and 64.67% in assay [3]. Further, the MIC is 12.5 µg/mL (≈ 26 µM) in assay [4]; 50 µg/mL (≈ 104 µM) in assay [5]; 12.5 µg/mL (≈ 26 µM) in assay [6]; 50 µg/mL (≈ 104 µM) in [7]; 12.5 µg/mL (≈ 26 µM) in assay [12]; 25 µg/mL (≈ 51.9 µM) in [13]. Further, the minimum inhibitory concentration (MIC) was determined as 25 µg/mL (≈ 51.9 µM) in assay [14] and 50 µg/mL (≈ 104 µM) in assay [15]. Moreover, the zone of inhibition at 5000 µg/mL in assay [8] was found to be 17 mm; in [9], 10 mm; in assay [10] it was 17 mm; in [11], 14 mm; in assay [16], 18 mm; in assay [17] it was 16 mm. In addition, the zone of inhibition at 5000 µg/mL in [18] amounted to 15 mm; in assay [19], 12 mm.

(Values after ChEMBL document CHEMBL3399986, “Rapid 'one-pot' synthesis of a novel benzimidazole-5-carboxylate and its hydrazone derivatives as potential anti-inflammatory and antimicrobial agents” (Bioorg Med Chem Lett, 2015).)
